In patent US12479858B2, “Macrocyclic compounds as sting agonists and methods and uses thereof” (Lupin Limited, priority 2019, dated 2025):
Structures can show the parent of a compound that is named as a salt.

Columns and labels:
[1] = test system: Interferon beta (IFNβ), interleukin-6 (IL-6) and tumor necrosis factor alpha (TNFα); test: Serum and tumor cytokine levels in CT26 tumor-bearing mice (ELISA); format: in vivo, BALB/c mice; conditions: 0.375 mg/kg single i.v.
Description: Pharmacokinetic and Pharmacodynamic Profiling and Estimation of Immune Cell Infiltration in Tumors Following Treatment with Compounds 2, 6, 8, 12 and 14
Serum and tumor cytokine levels and corresponding compound concentrations in mouse plasma were determined following single-dose intravenous administration in CT26 (murine colorectal carcinoma) tumor-bearing mice. Briefly, naïve BALB/c mice in the age group of 6-8 weeks were inoculated with 0.1 million CT-26 cells/animal in phosphate buffered saline (PBS), subcutaneously. […] Blood and tumor samples were harvested at various time points up to 24 h post-dose. Tumor samples were homogenized and prepared for cytokine estimation (ELISA) and compound concentration were determined by LC-MS/MS. Serum aliquots and tumor samples were snap-frozen and stored at −80° C. till further analysis. Serum and tumor samples were evaluated for Interferon beta (IFNβ), interleukin-6 (IL-6) and tumor necrosis factor alpha (TNFα) by enzyme linked immunosorbent assay (ELISA) using kits from R & D systems (Quantikine mouse IL-6 and TNFα kits) and PBL biosciences (Verikine mouse IFNβ kit).
Cytokine analysis from mouse serum samples: For IL-6 and TNFα estimation, 50 μL of test samples or internal standard or control were applied to wells in duplicates and incubated for 2 h at room temperature, followed by aspiration and washing four times with 400 μL of wash buffer. 100 μL of mouse IL-6 or TNFα conjugate solution was added and incubated further for 2 h at room temperature and followed later by 4 wash cycles. 100 μL of substrate solution was added to each well with addition of stop solution after 30 min. Optical density was measured at 450 nm averaged and was used for further calculations following subtraction of respective blank controls. Cytokine concentrations were determined by interpolating the optical density of samples into the reference standard curve utilizing four parameter logistic (4-PL) curve-fit. Cytokine concentrations were normalized with their respective dilution factors and represented in pg/mL. For IFNβ estimation, 100 μL test sample or internal standard or controls were applied to the wells in duplicates and incubated for 1 h at room temperature followed by three washes and addition of the anti-mouse IFNβ antibody solution with further 1 h incubation. This was followed by addition of horseradish peroxidase (HRP) solution and three washes, later addition of TMB substrate and reading the optical density at 450 nm. Optical densities were blank-subtracted and interpolated to the reference standard utilizing the four parameter logistic (4-PL) curve-fit. Cytokine concentrations were normalized with their respective dilution factors and represented in pg/mL. Tables 4 and 5 indicate cytokine levels for compounds 2, 6, 8, 12, and 14 in serum and tumor at different administered doses.
Cytokine analysis from tumor samples: Tumor samples were homogenized in a bead-based homogenizer and lysates were prepared with buffer supplemented with 1% Triton X-100 and protease inhibitors. Cytokine levels were estimated by ELISA and expressed as pg/g tumor.

[2] = test system: CD3^+CD8^+ T cells; test: Estimation of immune cell infiltration in tumors (flow cytometry); format: in vivo, Balb/c mice
Description: Estimation of immune cell infiltration in tumors: CT-26 tumor-bearing Balb/c mice were treated intravenously with 0.375 mg/kg of test compounds and blood and tumors were processed for analysis of CD8^+, CD3^+ and CD45^+ T cells at 24 h and 96 h after start of treatment. Blood samples were subjected to RBC lysis and the cells were recovered by centrifugation. Following wash with PBS, the cells were blocked using TruStain FcX™ blocking antibody and stained with fluorophore-tagged anti-CD45, anti-CD3 and anti-CD8 antibodies. Tumor samples were minced and subjected to tissue digestion using freshly prepared collagenase-IV solution (1 mg/ml) containing DNase (0.05 mg/ml) for 1-1.5 h at 37° C. and 150-200 rpm. Single cell suspension was prepared by filtering it through a 100 μm mesh and checked for cell viability. Cells were stained with various antibodies as mentioned above. The distinct T cell subsets were analysed on FACS Canto II (BD) and percentage of each population was calculated after initial gating of CD45^+ lymphocyte population.

[3] = test system: CT26 Allograft; test: Tumor volume in CT26 allograft BALB/c mice model, intravenous administration; format: in vivo; conditions: i.v., indicated dose at days 1, 4, and 8
Description: Effect of Compounds on Tumor Volume in CT26 Allograft BALB/c Mice Model by Intravenous (i.v.) Administration
Healthy, female BALB/c mice in the age group of 5-8 weeks issued from Research Animal Facility (RAF). These mice were housed in individually ventilated cages (IVC) in the experimental animal room and were acclimatized not less than 5 days prior to cell inoculation. All the experimental activities were carried out inside the biosafety cabinet to ensure sterility. Under aseptic conditions, Allograft tumor model was generated by inoculating BALB/c mice with 0.1 million CT26 single cell suspension (colorectal cancer model), using 1 mL disposable syringe fitted with a 26G ½″ sterile needle. Each mouse was inoculated with 100 μL of CT26 cell suspension in phosphate buffered saline (PBS) media, subcutaneously in right flank region. Mice were randomized into different groups, post cell inoculation, with approximately equal mean and equal variation (S.E.M.) of tumor volumes in various treatment groups including vehicle control group.
Tumor size was measured with Vernier caliper when the tumor became palpable. Tumor volume (T. V.) was calculated by using the formula: Tumor volume (mm^3)=(L×W^2)/2 • Where, L—Length of tumor, W—Width of tumor
Mice were selected and randomized, on the basis of tumor volume, into required no. of groups with approximately equal mean and equal variation on day 1 of treatment, post-tumor cell inoculation. All study groups were treated via intravenous route on day 1, 4 and 8 dosing schedule, through lateral tail vein at a dose volume of 5 mL/kg.
Tumor sizes were measured with Vernier caliper twice weekly and body weights of mice were recorded daily.
Percent tumor growth inhibition (% TGI) was calculated using the formula: % TGI=[1−(Tf−Ti)/(Cf−Ci)]×100 Wherein Tf and Ti are the final and initial test tumor volumes, respectively, and Cf and Ci are the final and initial control mean tumor volumes, respectively.
Percent Tumor Regression (% TR) was calculated using the formula: % TR=[(Initial T.V.−Final T.V.)/(Initial T.V.)]×100 Wherein T.V.=Tumor Volume
Body weight change (%) was calculated by using the formula: Body weight change (%)[=(Final B.Wt.)−(Initial B.Wt.)/Initial B.Wt.]×100 Wherein B.Wt.=Body weight

## CCn1nc(C)cc1C(=O)Nc1nc2cc(C(N)=O)cc3c2n1C/C=C/Cn1c(NC(=O)c2cc(C)nn2CC)nc2cc(C(=O)N[C@H]4CC[C@H](c5nnn[nH]5)CC4)cc(c21)OC[C@@H](N1C2CCC1COC2)CO3 [Compound 12, (8S,E)-N4-((1R,4S)-4-(1H-tetrazol-5-yl)cyclohexyl)-8-(3-oxa-8-azabicyclo[3.2.1]octan-8-yl)-1,15-bis(1-ethyl-3-methyl-1H-pyrazole-5-carboxamido)-8,9,16,19-tetrahydro-7H-6,10-dioxa-2,14,15a,19a-tetraazacyclopentadeca[3,2,1-cd:8,9,10-c′d′]diindene-4,12-dicarboxamide sodium salt]
[1]; 3.5 h (Table 6)
  Serum IFNβ: 4248 ± 706 pg/mL
  Tumor IFNβ: 6190 ± 687.0 pg/g tumor
[1]; 8 h (Table 6)
  Serum IFNβ: 568 ± 48.6 pg/mL
  Tumor IFNβ: 1144 ± 128.9 pg/g tumor
[1]; 12 h (Table 6)
  Serum IFNβ: 16 ± 15.7 pg/mL
  Tumor IFNβ: 789 ± 378.2 pg/g tumor
[1]; 24 h (Table 6)
  Serum IFNβ: BLQ
  Tumor IFNβ: 94 ± 48.3 pg/g tumor
[2]; infiltration in tumor, 96 h post treatment, 0.375 mg/kg single i.v.
  % CD3^+CD8^+ T cells: 12.2 ± 0.5%
[2]; single i.v. dose of 0.375 mg/kg, 96 h post treatment initiation
  % CD3^+CD8^+ T cells infiltrating the tumor as compared to the vehicle-treated group: increase
[3]
  effect on tumor volume: reduces tumor volume
  subjects exhibiting complete tumor regression: 8 out of 10

## CCn1nc(C)cc1C(=O)Nc1nc2cc(C(N)=O)cc3c2n1C/C=C/Cn1c(NC(=O)c2cc(C)nn2CC)nc2cc(C(=O)N[C@H]4CC[C@H](C(=O)O)CC4)cc(c21)OC[C@@H](N1C2CCC1COC2)CO3 [Compound 14, (1S,4R)-4-((8S,E)-8-(3-oxa-8-azabicyclo[3.2.1]octan-8-yl)-12-carbamoyl-1,15-bis(1-ethyl-3-methyl-1H-pyrazole-5-carboxamido)-8,9,16,19-tetrahydro-7H-6,10-dioxa-2,14,15a,19a-tetraazacyclopentadeca[3,2,1-cd:8,9,10-c′d′]diindene-4-carboxamido)cyclohexane-1-carboxylic acid sodium salt]
[1]; 3.5 h (Table 6)
  Serum IFNβ: 768 ± 330.8 pg/mL
  Tumor IFNβ: 2433 ± 653.8 pg/g tumor
[1]; 8 h (Table 6)
  Serum IFNβ: 415 ± 8.7 pg/mL
  Tumor IFNβ: 2137 ± 261.8 pg/g tumor
[1]; 12 h (Table 6)
  Serum IFNβ: 5 ± 5 pg/mL
  Tumor IFNβ: 752 ± 126.6 pg/g tumor
[1]; 24 h (Table 6)
  Serum IFNβ: BLQ
  Tumor IFNβ: 380 ± 239 pg/g tumor
[3]
  effect on tumor volume: reduces tumor volume
  subjects exhibiting complete tumor regression: 6 out of 9
